Data reported in US7279175B2, “Stent coated with a sustained-release drug delivery and method for use thereof” (Psivida Inc., priority 2001, dated 2007).
Values belong to the compound of their own block, whether it stands above or below them.

Legend:
[1] = In vitro release from stents coated with 1:1 mixture of TA and 5FU without chemical linkage; assay type: physicochemical; details: mixture coating, 0.1M phosphate buffer pH 7.4, 37° C.
Method: Stents were coated with a mixture of TA and 5FU in a mole-ratio of 1 to 1 without chemical linkage. The release rate was determined in vitro by placing the coated stents in 0.1M phosphate buffer (pH 7.4) at 37° C. Samples of the buffer solution were periodically removed for analysis by HPLC, and the buffer was replaced to avoid any saturation effects.
Because of the hydrophilic nature of 5FU, this compound was released from the mixture coating much faster than from the codrug coating. Within 4 weeks, more than 95% of total 5FU was released. TA release from the drug mixture coating was much slower, with about 20% TA released over the first 6 weeks.

[2] = Release test from PVA-coated glass plates into phosphate buffer (HPLC); assay type: physicochemical; details: 0.1 M phosphate buffer pH 7.4, 37° C., intact plus constituents
[3] = Release test from silicone-coated glass plates into phosphate buffer (HPLC); details: silicone coating, up to day 6; detected plus hydrolyzed

total 5FU released ([1]; within 4 weeks): more than 95%
Structure (SMILES): O=c1[nH]cc(F)c(=O)[nH]1 [5FU, 5-fluorouracil]

TA released ([1]; over the first 6 weeks): about 20%
Structure (SMILES): CC1(C)O[C@@H]2C[C@H]3[C@@H]4CCC5=CC(=O)C=C[C@]5(C)[C@@]4(F)[C@@H](O)C[C@]3(C)[C@]2(C(=O)CO)O1 [TA, triamcinolone acetonide]

release rate (slope of total cumulative release curve) [2]: 10 µg/day
total TC-112 released [3]: 122.4 mg
Structure (SMILES): COc1ccc2cc(C(C)C(=O)OCn3cc(F)c(=O)[nH]c3=O)ccc2c1 (stereo not shown) [TC-112]
